Measured values reported in ChEMBL document CHEMBL1130624, “In vitro inhibitory effects of DNA topoisomerase II by fernane-type triterpenoids isolated from a Euphorbia genus” (Bioorg Med Chem Lett, 1998).
Each block holds one compound with its values, some of them ahead of it. Active and inactive are the calls of the source. The calls are words filed in the database; no cut-off is given here.

Legend:
Format in all cases: protein assay
[1] = target: T1, DNA topoisomerase II (Homo sapiens) (UniProt P11388+Q02880); experiment: Compound was tested in vitro for inhibitory effect on DNA topoisomerase II activity at a concentration of 50 uM; […]
[2] = target: T1, DNA topoisomerase II (Homo sapiens); experiment: Compound was tested in vitro for inhibitory effect on DNA topoisomerase II activity at a concentration of 3.2 uM; No inhibition
[3] = target: T1, DNA topoisomerase II (Homo sapiens); experiment: Compound was tested in vitro for inhibitory effect on DNA topoisomerase II activity at a concentration of 6.3 uM; Slight inhibition
[4] = target: T1, DNA topoisomerase II (Homo sapiens); experiment: Compound was tested in vitro for inhibitory effect on DNA topoisomerase II activity at a concentration of 12.5 uM; Evidence inhibition
[5] = target: T1, DNA topoisomerase II (Homo sapiens); experiment: Compound was tested in vitro for inhibitory effect on DNA topoisomerase II activity at a concentration of 25 uM; […]
[6] = target: T1, DNA topoisomerase II (Homo sapiens); experiment: Compound was tested in vitro for inhibitory effect on DNA topoisomerase II activity at a concentration of 100 uM; […]
[7] = target: T1, DNA topoisomerase II (Homo sapiens); experiment: Compound was tested in vitro for inhibitory effect on DNA topoisomerase II activity at a concentration of 6.3 uM; No inhibition
[8] = target: T1, DNA topoisomerase II (Homo sapiens); experiment: Compound was tested in vitro for inhibitory effect on DNA topoisomerase II activity at a concentration of 100 uM; Evidence inhibition
[9] = target: T1, DNA topoisomerase II (Homo sapiens); experiment: Compound was tested in vitro for inhibitory effect on DNA topoisomerase II activity at a concentration of 25 uM; No inhibition
[10] = target: T1, DNA topoisomerase II (Homo sapiens); experiment: Compound was tested in vitro for inhibitory effect on DNA topoisomerase II activity at a concentration of 50 uM; Slight inhibition
[11] = target: T1, DNA topoisomerase II (Homo sapiens); experiment: Compound was tested in vitro for inhibitory effect on DNA topoisomerase II activity at a concentration of 12.5 uM; No inhibition
[12] = target: T1, DNA topoisomerase II (Homo sapiens); experiment: Compound was tested in vitro for inhibitory effect on DNA topoisomerase II activity at a concentration of 100 uM; No inhibition

Activity [1]: Slight inhibition | Activity [2]: inactive | Activity [3]: Slight inhibition | Activity [4]: Evidence inhibition | Activity [5]: Slight inhibition | Activity [6]: Slight inhibition
SMILES: C=C(C)[C@@H]1CC[C@@H]2C(=CC[C@@]3(C)[C@@H]4CC[C@H](C(C)C)[C@@]4(C)CC[C@]23C)[C@@]1(C)CCC(=O)O

Activity [2]: inactive | Activity [7]: inactive | Activity [8]: Evidence inhibition | Activity [9]: inactive | Activity [10]: Slight inhibition | Activity [11]: inactive
SMILES: C=C(C)[C@@H]1CC[C@@H]2C(=CC[C@@]3(C)[C@@H]4CC[C@H](C(C)C)[C@@]4(C)CC[C@]23C)[C@@]1(C)CCC(=O)OCc1ccccc1

Activity [12]: inactive
SMILES: CC(C)[C@H]1CC[C@@H]2[C@]1(C)CC[C@]1(C)C3=C(C(=O)C[C@@]21C)[C@@]1(C)CC[C@H](O)C(C)(C)C1C[C@@H]3O (some centres undefined)

Activity [12]: inactive
SMILES: CC(C)[C@H]1CC[C@@H]2[C@]1(C)CC[C@]1(C)C3=C([C@H](O)C[C@@]21C)[C@@]1(C)CC[C@H](O)C(C)(C)C1CC3=O (some centres undefined)

Activity [1]: Slight inhibition | Activity [2]: inactive | Activity [3]: Slight inhibition | Activity [4]: Evidence inhibition | Activity [5]: Slight inhibition | Activity [6]: Slight inhibition
SMILES: C=C(C)[C@@H]1CC[C@@H]2C(=CC[C@@]3(C)[C@@H]4CC[C@H](C(C)C)[C@@]4(C)CC[C@]23C)[C@@]1(C)CCCO

Activity [2]: inactive | Activity [7]: inactive | Activity [8]: Evidence inhibition | Activity [9]: inactive | Activity [10]: Slight inhibition | Activity [11]: inactive
SMILES: COc1cc([C@@H]2c3cc4c(cc3[C@@H](O[C@@H]3O[C@@H]5CO[C@@H](C)O[C@H]5[C@H](O)[C@H]3O)[C@H]3COC(=O)[C@H]23)OCO4)cc(OC)c1O

Activity [12]: inactive
SMILES: C=C(C)[C@@H]1CC[C@@H]2C(=CC[C@@]3(C)[C@@H]4CC[C@H](C(C)C)[C@@]4(C)CC[C@]23C)[C@@]1(C)CCC(=O)OC

Activity [12]: inactive
SMILES: CC(C)[C@H]1CC[C@@H]2[C@]1(C)CC[C@]1(C)C3=C(C(=O)C[C@@]21C)[C@@]1(C)CC[C@H](O)C(C)(C)C1CC3=O (some centres undefined)

Activity [12]: inactive
SMILES: CC(C)[C@H]1CC[C@@H]2[C@]1(C)CC[C@]1(C)C3=C(CC[C@@]21C)[C@@]1(C)CC[C@H](O)C(C)(C)C1CC3 (some centres undefined)
